Assay results reported in US20230085307A1, “PYRIDAZINONE COMPOUND AND HERBICIDE” (NISSAN CHEMICAL CORPORATION, priority 2019, published 2023).

How the values were obtained:
Italian ryegrass [1] = assay: Test Example 5: herbicidal effect by foliage application, plastic box (Table 20, symbol K); type: in vivo, Italian ryegrass (Lolium multiflorum); conditions: foliage application, AAH 320 g/ha, evaluated three weeks after application
Method in brief: (§1)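 Plants sown in sterilized diluvial soil and grown 14 days in a greenhouse at 25° C to 30° C, then sprayed on the foliage with the compound's emulsion diluted in water to a predetermined herbicide amount. Injury to weeds and crops scored three weeks after application on a visual rating scale.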

Italian ryegrass [2] = assay: Test Example 4: herbicidal effect by soil treatment (Table 19, symbol K); type: in vivo, Italian ryegrass (Lolium multiflorum); conditions: amount of applied herbicide 320 g/ha
Method in brief: (§2)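 Seeds were sown in sterilized diluvial soil and covered with about 1.5 cm of soil. An emulsion formulation diluted with water to a predetermined herbicide amount was sprayed evenly onto the soil surface. Plants grew in a greenhouse at 25° C. to 30° C., and the effect was scored three weeks after application using criteria from an earlier test.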

green foxtail [3] = assay: Test Example 4: herbicidal effect by soil treatment (Table 19, symbol G); type: in vivo, green foxtail (Setaria viridis); conditions: amount of applied herbicide 320 g/ha
Method in brief: as §2

barnyard grass [4] = assay: Test Example 4: herbicidal effect by soil treatment (Table 19, symbol H); type: in vivo, barnyard grass (Echinochloa crus-galli); conditions: amount of applied herbicide 320 g/ha
Method in brief: as §2

green foxtail [5] = assay: Test Example 5: herbicidal effect by foliage application, plastic box (Table 20, symbol G); type: in vivo, green foxtail (Setaria viridis); conditions: foliage application, AAH 320 g/ha, evaluated three weeks after application
Method in brief: as §1

rice flat sedge = assay: Test Example 3: herbicidal effect by foliage application, Wagner pot (Table 18, symbol E); type: in vivo, rice flat sedge (Cyperus iria); conditions: amount of applied herbicide 320 g/ha
Method in brief: (§3)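 Plants were sown in alluvial soil held under 0.1–0.5 cm standing water and grown 14 days in a greenhouse at 25–30 °C. An emulsifiable formulation, water-diluted to the set dose, was then sprayed onto the foliage, and effects were scored three weeks later using previously defined criteria.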

Japanese bulrush = assay: Test Example 1: herbicidal activity, application before weed generation under submerged conditions (Table 16, symbol B); type: in vivo, Japanese bulrush (Schoenoplectus juncoides); conditions: amount of applied herbicide 320 g/ha
Method in brief: (§4)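 Submerged Wagner pots (alluvial soil, 4 cm water) sown with weed seeds and planted with 2.5-leaf rice seedlings; emulsifiable concentrate diluted in water applied to water surface on sowing day. Held in greenhouse at 25-30 °C; injury scored 0-5 by herbicidal rate after three weeks.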

oval-leafed pondweed = assay: Test Example 1: herbicidal activity, application before weed generation under submerged conditions (Table 16, symbol C); type: in vivo, oval-leafed pondweed (Monochoria vaginalis); conditions: amount of applied herbicide 320 g/ha
Method in brief: as §4

southern crabgrass [6] = assay: Test Example 5: herbicidal effect by foliage application, plastic box (Table 20, symbol F); type: in vivo, southern crabgrass (Digitaria ciliaris); conditions: foliage application, AAH 320 g/ha, evaluated three weeks after application
Method in brief: as §1

redroot pigweed [7] = assay: Test Example 4: herbicidal effect by soil treatment (Table 19, symbol N); type: in vivo, redroot pigweed (Amaranthus retroflexus); conditions: amount of applied herbicide 320 g/ha
Method in brief: as §2

false cleavers = assay: Test Example 4: herbicidal effect by soil treatment (Table 19, symbol Q); type: in vivo, false cleavers (Galium spurium); conditions: amount of applied herbicide 320 g/ha
Method in brief: as §2

velvetleaf [8] = assay: Test Example 5: herbicidal effect by foliage application, plastic box (Table 20, symbol M); type: in vivo, velvetleaf (Abutilon theophrasti); conditions: foliage application, AAH 320 g/ha, evaluated three weeks after application
Method in brief: as §1

windgrass [9] = assay: Test Example 5: herbicidal effect by foliage application, plastic box (Table 20, symbol L); type: in vivo, windgrass (Apera spica-venti); conditions: foliage application, AAH 320 g/ha, evaluated three weeks after application
Method in brief: as §1

blackgrass [10] = assay: Test Example 5: herbicidal effect by foliage application, plastic box (Table 20, symbol J); type: in vivo, blackgrass (Alopecurus myosuroides); conditions: foliage application, AAH 320 g/ha, evaluated three weeks after application
Method in brief: as §1

chickweed [11] = assay: Test Example 5: herbicidal effect by foliage application, plastic box (Table 20, symbol P); type: in vivo, common chickweed (Stellaria media); conditions: foliage application, AAH 320 g/ha, evaluated three weeks after application
Method in brief: as §1

velvetleaf [12] = assay: Test Example 4: herbicidal effect by soil treatment (Table 19, symbol M); type: in vivo, velvetleaf (Abutilon theophrasti); conditions: amount of applied herbicide 320 g/ha
Method in brief: as §2

southern crabgrass [13] = assay: Test Example 4: herbicidal effect by soil treatment (Table 19, symbol F); type: in vivo, southern crabgrass (Digitaria ciliaris); conditions: amount of applied herbicide 320 g/ha
Method in brief: as §2

redroot pigweed [14] = assay: Test Example 5: herbicidal effect by foliage application, plastic box (Table 20, symbol N); type: in vivo, redroot pigweed (Amaranthus retroflexus); conditions: foliage application, AAH 320 g/ha, evaluated three weeks after application
Method in brief: as §1

wild oat [15] = assay: Test Example 5: herbicidal effect by foliage application, plastic box (Table 20, symbol I); type: in vivo, wild oat (Avena fatua); conditions: foliage application, AAH 320 g/ha, evaluated three weeks after application
Method in brief: as §1

wild oat [16] = assay: Test Example 4: herbicidal effect by soil treatment (Table 19, symbol I); type: in vivo, wild oat (Avena fatua); conditions: amount of applied herbicide 320 g/ha
Method in brief: as §2

Chinese sprangletop = assay: Test Example 3: herbicidal effect by foliage application, Wagner pot (Table 18, symbol D); type: in vivo, chinese sprangletop (Leptochloa chinensis); conditions: amount of applied herbicide 320 g/ha
Method in brief: as §3

lambsquarters [17] = assay: Test Example 4: herbicidal effect by soil treatment (Table 19, symbol O); type: in vivo, lambsquarters (Chenopodium album); conditions: amount of applied herbicide 320 g/ha
Method in brief: as §2

barnyard grass [18] = assay: Test Example 5: herbicidal effect by foliage application, plastic box (Table 20, symbol H); type: in vivo, barnyard grass (Echinochloa crus-galli); conditions: foliage application, AAH 320 g/ha, evaluated three weeks after application
Method in brief: as §1

blackgrass [19] = assay: Test Example 4: herbicidal effect by soil treatment (Table 19, symbol J); type: in vivo, blackgrass (Alopecurus myosuroides); conditions: amount of applied herbicide 320 g/ha
Method in brief: as §2

persian speedwell [20] = assay: Test Example 4: herbicidal effect by soil treatment (Table 19, symbol R); type: in vivo, Persian speedwell (Veronica persica); conditions: amount of applied herbicide 320 g/ha
Method in brief: as §2

windgrass [21] = assay: Test Example 4: herbicidal effect by soil treatment (Table 19, symbol L); type: in vivo, windgrass (Apera spica-venti); conditions: amount of applied herbicide 320 g/ha
Method in brief: as §2

lambsquarters [22] = assay: Test Example 5: herbicidal effect by foliage application, plastic box (Table 20, symbol O); type: in vivo, lambsquarters (Chenopodium album); conditions: foliage application, AAH 320 g/ha, evaluated three weeks after application
Method in brief: as §1

persian speedwell [23] = assay: Test Example 5: herbicidal effect by foliage application, plastic box (Table 20, symbol R); type: in vivo, Persian speedwell (Veronica persica); conditions: foliage application, AAH 320 g/ha, evaluated three weeks after application
Method in brief: as §1

chickweed [24] = assay: Test Example 4: herbicidal effect by soil treatment (Table 19, symbol P); type: in vivo, common chickweed (Stellaria media); conditions: amount of applied herbicide 320 g/ha
Method in brief: as §2

late watergrass = assay: Test Example 1: herbicidal activity, application before weed generation under submerged conditions (Table 16, symbol A); type: in vivo, late watergrass (Echinochloa oryzicola); conditions: amount of applied herbicide 320 g/ha
Method in brief: as §4

In the case of `CCn1nc(C)c(O)c(-c2c(-c3ccc(F)cc3)sc3ccc(F)cc23)c1=O` [2-398], the “K: Italian ryegrass, herbicidal effect (criteria 0-5)” value (Italian ryegrass [1]) is reported as 4 (Herbicidal rate of 70% or more and less than 90%), the “herbicidal effect, K: Italian ryegrass” value (Italian ryegrass [2]) is reported as 4 (Herbicidal rate of 70% or more and less than 90%) and the “herbicidal effect, G: green foxtail” value (green foxtail [3]) is reported as 3 (Herbicidal rate of 40% or more and less than 70%). For the same compound, the “herbicidal effect, H: barnyard grass” value (barnyard grass [4]) was 2 (Herbicidal rate of 20% or more and less than 40%), the “G: green foxtail, herbicidal effect (criteria 0-5)” value (green foxtail [5]) was 4 (Herbicidal rate of 70% or more and less than 90%) and the “herbicidal effect on E: rice flat sedge” value (rice flat sedge) was 3 (Herbicidal rate of 40% or more and less than 70%). For the same compound, the “Herbicidal effect, B: Japanese bulrush” value (Japanese bulrush) was 3 (Herbicidal rate of 40% or more and less than 70%), the “Herbicidal effect, C: oval-leafed pondweed” value (oval-leafed pondweed) was 0 (Herbicidal rate of 5% or less (almost no effect)) and the “F: southern crabgrass, herbicidal effect (criteria 0-5)” value (southern crabgrass [6]) was 4 (Herbicidal rate of 70% or more and less than 90%). For the same compound, the “herbicidal effect, N: redroot pigweed” value (redroot pigweed [7]) was 4 (Herbicidal rate of 70% or more and less than 90%), the “herbicidal effect, Q: false cleavers” value (false cleavers) was 0 (Herbicidal rate of 5% or less (almost no effect)) and the “M: velvetleaf, herbicidal effect (criteria 0-5)” value (velvetleaf [8]) was 5 (Herbicidal rate of 90% or more (almost completely withered)). The “L: windgrass, herbicidal effect (criteria 0-5)” value (windgrass [9]) was 0 (Herbicidal rate of 5% or less (almost no effect)), the “J: blackgrass, herbicidal effect (criteria 0-5)” value (blackgrass [10]) was 0 (Herbicidal rate of 5% or less (almost no effect)) and the “P: chickweed, herbicidal effect (criteria 0-5)” value (chickweed [11]) was 5 (Herbicidal rate of 90% or more (almost completely withered)). For the same compound, the “herbicidal effect, M: velvetleaf” value (velvetleaf [12]) was 1 (Herbicidal rate of 5% or more and less than 20%), the “herbicidal effect, F: southern crabgrass” value (southern crabgrass [13]) was 3 (Herbicidal rate of 40% or more and less than 70%) and the “N: redroot pigweed, herbicidal effect (criteria 0-5)” value (redroot pigweed [14]) was 5 (Herbicidal rate of 90% or more (almost completely withered)). For the same compound, the “I: wild oat, herbicidal effect (criteria 0-5)” value (wild oat [15]) was 0 (Herbicidal rate of 5% or less (almost no effect)), the “herbicidal effect, I: wild oat” value (wild oat [16]) was 0 (Herbicidal rate of 5% or less (almost no effect)) and the “herbicidal effect on D: Chinese sprangletop” value (Chinese sprangletop) was 0 (Herbicidal rate of 5% or less (almost no effect)). For the same compound, the “herbicidal effect, O: lambsquarters” value (lambsquarters [17]) was 3 (Herbicidal rate of 40% or more and less than 70%), the “H: barnyard grass, herbicidal effect (criteria 0-5)” value (barnyard grass [18]) was 5 (Herbicidal rate of 90% or more (almost completely withered)) and the “herbicidal effect, J: blackgrass” value (blackgrass [19]) was 0 (Herbicidal rate of 5% or less (almost no effect)). The “herbicidal effect, R: persian speedwell” value (persian speedwell [20]) was 1 (Herbicidal rate of 5% or more and less than 20%), the “herbicidal effect, L: windgrass” value (windgrass [21]) was 0 (Herbicidal rate of 5% or less (almost no effect)) and the “O: lambsquarters, herbicidal effect (criteria 0-5)” value (lambsquarters [22]) was 4 (Herbicidal rate of 70% or more and less than 90%). For the same compound, the “R: persian speedwell, herbicidal effect (criteria 0-5)” value (persian speedwell [23]) was 5 (Herbicidal rate of 90% or more (almost completely withered)), the “herbicidal effect, P: chickweed” value (chickweed [24]) was 0 (Herbicidal rate of 5% or less (almost no effect)) and the “Herbicidal effect, A: late watergrass” value (late watergrass) was 3 (Herbicidal rate of 40% or more and less than 70%).
